Measurements reported in patent publication US20230398130A1, “METHODS AND COMPOSITIONS FOR DIFFERENTIATING STEM CELLS” (Massachusetts Institute of Technology, priority 2020, published 2023).

Key:
ISC-enriched organoids [1] = test: Primary screen, 384-well 2.5-D organoid differentiation (ENR+CD, 6 days): basal lysozyme secretion (LYZ.NS); format: cell-based, murine; details: primary screen; for Dose.FC.LYZ.NS: FC vs plate median; for Z.LYZ.NS: standard z score; for SSMD.LYZ.NS: strictly standardized mean difference
Description: (§1) High-throughput screening.

ISC-enriched organoids [2] = test: Primary screen, 384-well 2.5-D organoid differentiation (ENR+CD, 6 days): carbachol-induced lysozyme secretion (LYZ.S); format: cell-based, murine; details: primary screen; for Dose.FC.LYZ.S: FC vs plate median; for Z.LYZ.S: standard z score; for SSMD.LYZ.S: strictly standardized mean difference
Description: as §1

ISC-enriched organoids [3] = test: Primary screen, 384-well 2.5-D organoid differentiation (ENR+CD, 6 days, Target Selective Inhibitor Library, vs whole-plate median): ATP (CellTiter-Glo 3D, CTG); details: primary screen; for Dose.FC.CTG: FC vs plate median; for Z.CTG: standard z score; for SSMD.CTG: strictly standardized mean difference
[4] = 1st of the 4 dose lines of the treatment (dose not given)
[5] = 2nd of the 4 dose lines of the treatment (dose not given)
[6] = 3rd of the 4 dose lines of the treatment (dose not given)
[7] = 4th of the 4 dose lines of the treatment (dose not given)

Row | Compound | SSMD.LYZ.NS (ISC-enriched organoids [1]; [4]) | SSMD.LYZ.NS (ISC-enriched organoids [1]; [5]) | SSMD.LYZ.NS (ISC-enriched organoids [1]; [6]) | SSMD.LYZ.NS (ISC-enriched organoids [1]; [7]) | Z.LYZ.S (ISC-enriched organoids [2]; [4]) | Z.LYZ.S (ISC-enriched organoids [2]; [5]) | Z.LYZ.S (ISC-enriched organoids [2]; [6]) | Z.LYZ.S (ISC-enriched organoids [2]; [7]) | SSMD.LYZ.S (ISC-enriched organoids [2]; [4]) | SSMD.LYZ.S (ISC-enriched organoids [2]; [5]) | SSMD.LYZ.S (ISC-enriched organoids [2]; [6]) | SSMD.LYZ.S (ISC-enriched organoids [2]; [7]) | Z.CTG (ISC-enriched organoids [3]; Dose 0.08 uM) | Z.CTG (ISC-enriched organoids [3]; Dose 0.40 uM) | Z.CTG (ISC-enriched organoids [3]; Dose 2.00 uM) | Z.CTG (ISC-enriched organoids [3]; Dose 10.00 uM) | SSMD.CTG (ISC-enriched organoids [3]; [4]) | SSMD.CTG (ISC-enriched organoids [3]; [5]) | SSMD.CTG (ISC-enriched organoids [3]; [6]) | SSMD.CTG (ISC-enriched organoids [3]; [7]) | also measured
1 | Cc1ccc(C(=O)N(CCCN)[C@@H](c2nc3cc(Cl)ccc3c(=O)n2Cc2ccccc2)C(C)C)cc1 [Ispinesib (SB-715992)] | −1.681 | −1.354 | −1.617 | −1.093 | −1.753 | −1.914 | −1.859 | −1.850 | −1.495 | −1.509 | −1.657 | −1.525 | −0.772 | −1.238 | −1.220 | −1.704 | −0.942 | −0.971 | −1.118 | −1.236 | Dose.FC.LYZ.NS (ISC-enriched organoids [1]; Dose 0.08 uM): −0.222 log 2 fold change; Z.LYZ.NS (ISC-enriched organoids [1]; Dose 0.08 uM): −1.931; Dose.FC.LYZ.NS (ISC-enriched organoids [1]; Dose 0.40 uM): −0.191 log 2 fold change; Z.LYZ.NS (ISC-enriched organoids [1]; Dose 0.40 uM): −1.663; Dose.FC.LYZ.NS (ISC-enriched organoids [1]; Dose 2.00 uM): −0.196 log 2 fold change; Z.LYZ.NS (ISC-enriched organoids [1]; Dose 2.00 uM): −1.709; Dose.FC.LYZ.NS (ISC-enriched organoids [1]; Dose 10.00 uM): −0.201 log 2 fold change; Z.LYZ.NS (ISC-enriched organoids [1]; Dose 10.00 uM): −1.752; Dose.FC.LYZ.S (ISC-enriched organoids [2]; Dose 0.08 uM): −0.271 log 2 fold change; Dose.FC.LYZ.S (ISC-enriched organoids [2]; Dose 0.40 uM): −0.296 log 2 fold change; Dose.FC.LYZ.S (ISC-enriched organoids [2]; Dose 2.00 uM): −0.287 log 2 fold change; Dose.FC.LYZ.S (ISC-enriched organoids [2]; Dose 10.00 uM): −0.286 log 2 fold change; Dose.FC.CTG (ISC-enriched organoids [3]; Dose 0.08 uM): −0.323 log 2 fold change; Dose.FC.CTG (ISC-enriched organoids [3]; Dose 0.40 uM): −0.518 log 2 fold change; Dose.FC.CTG (ISC-enriched organoids [3]; Dose 2.00 uM): −0.511 log 2 fold change; Dose.FC.CTG (ISC-enriched organoids [3]; Dose 10.00 uM): −0.713 log 2 fold change
2 | CCn1c(=O)c2c(nc(/C=C/c3ccc(OC)c(OC)c3)n2C)n(CC)c1=O [Istradefylline] | −0.084 | −0.362 | −0.012 | −0.336 | −0.190 | −0.560 | −0.621 | −0.367 | −0.139 | −0.661 | −0.578 | −0.289 | −0.107 | 0.158 | −0.375 | −0.091 | −0.113 | 0.225 | −0.412 | −0.106 | 
3 | CC(C)(C)c1cc(C(C)(C)C)c(NC(=O)c2c[nH]c3ccccc3c2=O)cc1O [Ivacaftor (VX-770)] | 0.882 | 0.825 | 0.582 | −1.167 | 0.853 | 1.220 | 0.124 | −1.636 | 0.705 | 1.209 | 0.148 | −1.350 | 0.558 | 0.347 | −0.354 | −1.123 | 0.431 | 0.280 | −0.331 | −1.317 | Dose.FC.LYZ.NS (ISC-enriched organoids [1]; Dose 0.08 uM): 0.099 log 2 fold change; Z.LYZ.NS (ISC-enriched organoids [1]; Dose 0.08 uM): 0.864; Dose.FC.LYZ.NS (ISC-enriched organoids [1]; Dose 0.40 uM): 0.127 log 2 fold change; Z.LYZ.NS (ISC-enriched organoids [1]; Dose 0.40 uM): 1.109; Dose.FC.LYZ.NS (ISC-enriched organoids [1]; Dose 2.00 uM): 0.082 log 2 fold change; Z.LYZ.NS (ISC-enriched organoids [1]; Dose 2.00 uM): 0.717; Dose.FC.LYZ.NS (ISC-enriched organoids [1]; Dose 10.00 uM): −0.142 log 2 fold change; Z.LYZ.NS (ISC-enriched organoids [1]; Dose 10.00 uM): −1.240; Dose.FC.LYZ.S (ISC-enriched organoids [2]; Dose 0.08 uM): 0.132 log 2 fold change; Dose.FC.LYZ.S (ISC-enriched organoids [2]; Dose 0.40 uM): 0.189 log 2 fold change; Dose.FC.LYZ.S (ISC-enriched organoids [2]; Dose 2.00 uM): 0.019 log 2 fold change; Dose.FC.LYZ.S (ISC-enriched organoids [2]; Dose 10.00 uM): −0.253 log 2 fold change; Dose.FC.CTG (ISC-enriched organoids [3]; Dose 0.08 uM): 0.234 log 2 fold change; Dose.FC.CTG (ISC-enriched organoids [3]; Dose 0.40 uM): 0.145 log 2 fold change; Dose.FC.CTG (ISC-enriched organoids [3]; Dose 2.00 uM): −0.148 log 2 fold change; Dose.FC.CTG (ISC-enriched organoids [3]; Dose 10.00 uM): −0.470 log 2 fold change
4 | Clc1ccc(N/N=C(\c2ccccc2)c2ccccn2)nc1 [JIB-04] | 0.941 | 0.239 | 0.042 | −0.845 | 1.312 | 0.545 | −0.365 | −0.552 | 0.895 | 0.407 | −0.339 | −0.195 | 0.607 | 0.258 | 0.219 | −0.433 | 0.552 | 0.331 | 0.282 | −0.531 | Dose.FC.LYZ.NS (ISC-enriched organoids [1]; Dose 0.08 uM): 0.178 log 2 fold change; Z.LYZ.NS (ISC-enriched organoids [1]; Dose 0.08 uM): 1.549; Dose.FC.LYZ.NS (ISC-enriched organoids [1]; Dose 0.40 uM): 0.030 log 2 fold change; Z.LYZ.NS (ISC-enriched organoids [1]; Dose 0.40 uM): 0.264; Dose.FC.LYZ.NS (ISC-enriched organoids [1]; Dose 2.00 uM): 0.006 log 2 fold change; Z.LYZ.NS (ISC-enriched organoids [1]; Dose 2.00 uM): 0.048; Dose.FC.LYZ.NS (ISC-enriched organoids [1]; Dose 10.00 uM): −0.153 log 2 fold change; Z.LYZ.NS (ISC-enriched organoids [1]; Dose 10.00 uM): −1.330; Dose.FC.LYZ.S (ISC-enriched organoids [2]; Dose 0.08 uM): 0.203 log 2 fold change; Dose.FC.LYZ.S (ISC-enriched organoids [2]; Dose 0.40 uM): 0.084 log 2 fold change; Dose.FC.LYZ.S (ISC-enriched organoids [2]; Dose 2.00 uM): −0.056 log 2 fold change; Dose.FC.LYZ.S (ISC-enriched organoids [2]; Dose 10.00 uM): −0.085 log 2 fold change; Dose.FC.CTG (ISC-enriched organoids [3]; Dose 0.08 uM): 0.254 log 2 fold change; Dose.FC.CTG (ISC-enriched organoids [3]; Dose 0.40 uM): 0.108 log 2 fold change; Dose.FC.CTG (ISC-enriched organoids [3]; Dose 2.00 uM): 0.092 log 2 fold change; Dose.FC.CTG (ISC-enriched organoids [3]; Dose 10.00 uM): −0.181 log 2 fold change
